Laboratory results from patent US10131652B2, “Pyrimidinyloxy benzene derivatives as herbicides” (E. I. DU PONT DE NEMOURS AND COMPANY, priority 2014, dated 2018).
Where two headings read alike, the source gives them in different places.

Key:
Assay in all cases: Test F pre-/postemergence plant response
Format in all cases: in vivo
[1] = system: barnyardgrass (Echinochloa crus-galli); conditions: Echinochloa crus-galli, scale 0 to 100, read-out: Plant response rating, Barnyardgrass
How it was run: (§1)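 Plant response is a visual score from 0, meaning no effect, to 100, meaning complete control, assigned by comparison with untreated plants. Ratings were made 14 to 21 days after preemergence application to seeded silt loam or postemergence application to plants at the 1- to 4-leaf stage.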

[2] = system: ragweed (common ragweed, Ambrosia elatior); conditions: Ambrosia artemisiifolia, pre-emergence, scale 0 to 100, read-out: Plant response rating, Ragweed
How it was run: as §1

[3] = system: large (Lg) crabgrass (Digitaria sanguinalis); conditions: Digitaria sanguinalis, pre-emergence, scale 0 to 100, read-out: Plant response rating, Crabgrass, Large
How it was run: as §1

[4] = system: giant foxtail (Setaria faberii); conditions: Setaria faberi, pre-emergence, scale 0 to 100, read-out: Plant response rating, Foxtail, Giant
How it was run: as §1

[5] = system: johnsongrass (Sorghum halepense); conditions: Sorghum halepense, pre-emergence, scale 0 to 100, read-out: Plant response rating, Johnsongrass
How it was run: as §1

[6] = system: green foxtail (Setaria viridis); conditions: Setaria viridis, pre-emergence, scale 0 to 100, read-out: Plant response rating, Foxtail, Green
How it was run: as §1

[7] = system: kochia (Kochia scoparia); conditions: Bassia scoparia, pre-emergence, scale 0 to 100, read-out: Plant response rating, Kochia
How it was run: as §1

[8] = system: surinam grass (Brachiaria decumbens); conditions: Urochloa decumbens, pre-emergence, scale 0 to 100, read-out: Plant response rating, Surinam Grass
How it was run: as §1

[9] = system: wild poinsettia (Euphorbia heterophylla); conditions: Euphorbia heterophylla, scale 0 to 100, read-out: Plant response rating, Poinsettia, Wild
How it was run: as §1

[10] = system: waterhemp (common waterhemp, Amaranthus rudis); conditions: Amaranthus tuberculatus, scale 0 to 100, read-out: Plant response rating, Waterhemp
How it was run: as §1

[11] = system: Italian ryegrass (Lolium multiflorum); conditions: Lolium multiflorum, scale 0 to 100, read-out: Plant response rating, Ryegrass, Italian; for pest or weed control at 16 g/ha: 16 g ai/ha; for pest or weed control at 31 g/ha: 31 g ai/ha; for pest or weed control at 125 g/ha: 125 g ai/ha
How it was run: as §1

[12] = system: dayflower (Virginia (VA) dayflower, Commelina virginica); conditions: Commelina virginica, scale 0 to 100, read-out: Plant response rating, Dayflower, VA
How it was run: as §1

[13] = system: field bindweed (Convolvulus arvensis); conditions: Convolvulus arvensis, scale 0 to 100, read-out: Plant response rating, Field Bindweed
How it was run: as §1

[14] = system: lambsquarters (Chenopodium album); conditions: Chenopodium album, pre-emergence, scale 0 to 100, read-out: Plant response rating, Lambsquarters
How it was run: as §1

[15] = system: morningglory (Ipomoea coccinea); conditions: Ipomoea, pre-emergence, scale 0 to 100, read-out: Plant response rating, Morningglory
How it was run: as §1

[16] = system: yellow nutsedge (Cyperus esculentus); conditions: Cyperus, pre-emergence, scale 0 to 100, read-out: Plant response rating, Nutsedge, Yellow
How it was run: as §1

[17] = system: soybean (Glycine max); conditions: Glycine max, scale 0 to 100, read-out: Plant response rating, Soybean
How it was run: as §1

[18] = post-emergence, 8 g ai/ha Postemergence
[19] = post-emergence, 16 g ai/ha Postemergence
[20] = post-emergence, 31 g ai/ha Postemergence
[21] = post-emergence, 62 g ai/ha Postemergence
[22] = post-emergence, 125 g ai/ha Postemergence
[23] = pre-emergence, 8 g ai/ha Preemergence
[24] = pre-emergence, 16 g ai/ha Preemergence
[25] = pre-emergence, 31 g ai/ha Preemergence
[26] = pre-emergence, 62 g ai/ha Preemergence
[27] = pre-emergence, 125 g ai/ha Preemergence

FC(F)(F)c1cc(-c2ccccc2Oc2ncc(Cl)cn2)no1 [Compound 200, 5-chloro-2-[2-[5-(trifluoromethyl)-3-isoxazolyl]phenoxy]pyrimidine]
85%: pest or weed control at 31 g/ha ([3]; 31 g ai/ha Preemergence)
60%: pest or weed control at 125 g/ha [1, 27] | pest or weed control at 62 g/ha [9, 21] | pest or weed control at 62 g/ha ([9]; pre-emergence, Preemergence)
30%: pest or weed control at 62 g/ha [1, 26] | pest or weed control at 31 g/ha [13, 25] | pest or weed control at 62 g/ha [13, 26] | pest or weed control at 125 g/ha [13, 27] | plant injury at 62 g/ha ([17]; pre-emergence, Preemergence)
95%: pest or weed control at 62 g/ha ([3]; 62 g ai/ha Preemergence) | pest or weed control at 31 g/ha [10, 20]
25%: pest or weed control at 125 g/ha [1, 22] | pest or weed control at 16 g/ha ([7]; 16 g ai/ha, Preemergence) | pest or weed control at 31 g/ha [12, 20]
50%: pest or weed control at 16 g/ha ([3]; 16 g ai/ha Preemergence) | pest or weed control at 31 g/ha ([7]; 31 g ai/ha, Preemergence) | pest or weed control at 16 g/ha [9, 19] | pest or weed control at 31 g/ha [12, 25] | plant injury at 125 g/ha [17, 27]
15%: pest or weed control at 62 g/ha [1, 21] | pest or weed control at 62 g/ha ([11]; post-emergence, 62 g ai/ha, Postemergence) | pest or weed control at 62 g/ha [12, 21] | pest or weed control at 16 g/ha [12, 24] | pest or weed control at 125 g/ha ([15]; 125 g ai/ha Preemergence) | plant injury at 8 g/ha [17, 18]
10%: pest or weed control at 31 g/ha ([2]; 31 g ai/ha Preemergence) | pest or weed control at 16 g/ha ([6]; 16 g ai/ha, Preemergence) | pest or weed control at 62 g/ha ([8]; Preemergence) | pest or weed control at 62 g/ha ([16]; Preemergence)
65%: pest or weed control at 31 g/ha ([4]; 31 g ai/ha Preemergence) | plant injury at 62 g/ha [17, 21]
80%: pest or weed control at 62 g/ha ([7]; Preemergence) | pest or weed control at 125 g/ha [9, 22] | pest or weed control at 16 g/ha [10, 19]
98%: pest or weed control at 31 g/ha ([6]; 31 g ai/ha, Preemergence) | pest or weed control at 62 g/ha [10, 21] | pest or weed control at 16 g/ha [10, 24] | pest or weed control at 31 g/ha ([14]; 31 g ai/ha, Preemergence) | pest or weed control at 62 g/ha ([14]; Preemergence)
70%: pest or weed control at 125 g/ha [9, 27] | pest or weed control at 8 g/ha [10, 23] | pest or weed control at 62 g/ha [12, 26]
35%: pest or weed control at 62 g/ha ([2]; Preemergence) | pest or weed control at 16 g/ha ([4]; 16 g ai/ha Preemergence) | pest or weed control at 62 g/ha ([5]; Preemergence) | pest or weed control at 125 g/ha ([8]; 125 g ai/ha Preemergence) | pest or weed control at 8 g/ha [9, 18] | pest or weed control at 125 g/ha [12, 22] | pest or weed control at 31 g/ha [13, 20] | pest or weed control at 62 g/ha [13, 21] | pest or weed control at 125 g/ha [13, 22] | pest or weed control at 125 g/ha ([16]; 125 g ai/ha Preemergence)
75%: pest or weed control at 8 g/ha [10, 18]
0%: pest or weed control at 8 g/ha [1, 18] | pest or weed control at 16 g/ha [1, 19] | pest or weed control at 31 g/ha [1, 20] | pest or weed control at 8 g/ha [1, 23] | pest or weed control at 16 g/ha [1, 24] | pest or weed control at 31 g/ha [1, 25] | pest or weed control at 8 g/ha ([2]; 8 g ai/ha Preemergence) | pest or weed control at 16 g/ha ([2]; 16 g ai/ha Preemergence) | pest or weed control at 8 g/ha ([3]; 8 g ai/ha Preemergence) | pest or weed control at 8 g/ha ([4]; 8 g ai/ha Preemergence) | pest or weed control at 8 g/ha ([5]; 8 g ai/ha Preemergence) | pest or weed control at 16 g/ha ([5]; 16 g ai/ha Preemergence) | pest or weed control at 8 g/ha ([6]; 8 g ai/ha Preemergence) | pest or weed control at 8 g/ha ([8]; 8 g ai/ha Preemergence) | pest or weed control at 16 g/ha ([8]; 16 g ai/ha Preemergence) | pest or weed control at 31 g/ha ([8]; 31 g ai/ha Preemergence) | pest or weed control at 8 g/ha [9, 23] | pest or weed control at 16 g/ha [9, 24] | pest or weed control at 8 g/ha [11, 18] | pest or weed control at 16 g/ha ([11]; post-emergence, Postemergence) | pest or weed control at 31 g/ha ([11]; post-emergence, Postemergence) | pest or weed control at 8 g/ha [11, 23] | pest or weed control at 16 g/ha ([11]; pre-emergence, Preemergence) | pest or weed control at 31 g/ha ([11]; pre-emergence, Preemergence) | pest or weed control at 8 g/ha [12, 18] | pest or weed control at 16 g/ha [12, 19] | pest or weed control at 8 g/ha [12, 23] | pest or weed control at 8 g/ha [13, 23] | pest or weed control at 16 g/ha [13, 24] | pest or weed control at 8 g/ha ([14]; 8 g ai/ha Preemergence) | pest or weed control at 16 g/ha ([14]; 16 g ai/ha, Preemergence) | pest or weed control at 8 g/ha ([15]; 8 g ai/ha Preemergence) | pest or weed control at 16 g/ha ([15]; 16 g ai/ha Preemergence) | pest or weed control at 31 g/ha ([15]; 31 g ai/ha Preemergence) | pest or weed control at 62 g/ha ([15]; Preemergence) | pest or weed control at 8 g/ha ([16]; 8 g ai/ha Preemergence) | pest or weed control at 16 g/ha ([16]; 16 g ai/ha Preemergence) | pest or weed control at 31 g/ha ([16]; 31 g ai/ha Preemergence) | plant injury at 8 g/ha [17, 23] | plant injury at 16 g/ha [17, 24]
5%: pest or weed control at 31 g/ha ([5]; 31 g ai/ha Preemergence)
20%: pest or weed control at 8 g/ha ([7]; 8 g ai/ha Preemergence) | pest or weed control at 31 g/ha [9, 25] | pest or weed control at 125 g/ha ([11]; post-emergence, Postemergence) | pest or weed control at 62 g/ha ([11]; pre-emergence, Preemergence) | pest or weed control at 8 g/ha [13, 18] | pest or weed control at 16 g/ha [13, 19] | plant injury at 16 g/ha [17, 19] | plant injury at 31 g/ha [17, 25]
40%: pest or weed control at 125 g/ha ([2]; 125 g ai/ha Preemergence) | pest or weed control at 31 g/ha [9, 20] | pest or weed control at 125 g/ha ([11]; pre-emergence, Preemergence) | plant injury at 31 g/ha [17, 20]
100%: pest or weed control at 125 g/ha ([3]; 125 g ai/ha Preemergence) | pest or weed control at 62 g/ha ([4]; 62 g ai/ha Preemergence) | pest or weed control at 125 g/ha ([4]; 125 g ai/ha Preemergence) | pest or weed control at 125 g/ha ([6]; 125 g ai/ha, Preemergence) | pest or weed control at 62 g/ha ([6]; Preemergence) | pest or weed control at 125 g/ha ([7]; 125 g ai/ha, Preemergence) | pest or weed control at 125 g/ha [10, 22] | pest or weed control at 31 g/ha [10, 25] | pest or weed control at 125 g/ha [10, 27] | pest or weed control at 62 g/ha ([10]; pre-emergence, Preemergence) | pest or weed control at 125 g/ha ([14]; 125 g ai/ha, Preemergence)
90%: pest or weed control at 125 g/ha ([5]; 125 g ai/ha Preemergence) | pest or weed control at 125 g/ha [12, 27] | plant injury at 125 g/ha [17, 22]
